The results in this text go back to PubChem BioAssay (NCI).

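Step 1: Grow cells in 96-well plates. Step 2: Expose to compound for 48 hours at 5 concentrations. Step 3: Interpolate endpoints linearly; if unreached, use highest concentration. Abbreviation: GI50, concentration required for 50% inhibition of growth. TGI denotes the concentration required for complete inhibition of growth.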

Holding throughout (experiment): NCI anticancer screen, dose series, 48 h
Experiment [1] relates to HOP-62 NSCLC.
Experiment [2] concerns ACHN renal.
Experiment [3] concerns MDA-MB-435.
Experiment [4] relates to A498 renal.
Experiment [5] has as its system SF-268 CNS.
Experiment [6] has as its system NCI-H460 lung.
For experiment [7], the system named is SK-MEL-28 melanoma.
Experiment [8] deals with T-47D breast.
Experiment [9] relates to NCI-H226 lung.
For experiment [10], the system named is K-562 leukemia.

As to `CN1CCN(c2ccc(C(=O)Nc3cc(-c4cccc(NS(=O)(=O)c5ccccc5)c4)[nH]n3)cc2)CC1`, the GI50 in experiment [1] was 6.61 µM; in experiment [2] it was 7.6 µM; in experiment [3] it was 6.84 µM; in [4], 0.505 µM; in experiment [5], 5.51 µM; in [6], 5.46 µM. Also, the GI50 in experiment [7] is 11.4 µM; in experiment [8], 3.8 µM; in experiment [9] it was 12.6 µM; in experiment [10], 2.89 µM. In addition, the TGI in experiment [1] worked out at 30.2 µM; in [2] it was 26.7 µM; in [3] it was 22.3 µM; in experiment [4] it was 9.75 µM; in [5], 25.7 µM; in experiment [6], 23.1 µM. Moreover, the TGI in experiment [7] came to 27 µM; in experiment [8] it was 18.6 µM; in [9] it was 40 µM; in [10], 19.4 µM.

With `COc1ccc(/C=C/NC=O)cc1`, the TGI in experiment [1], in [2], in experiment [3], in [4], in [5] and in experiment [6] was more than 100 µM in each case. The TGI in experiment [7], in experiment [8], in experiment [9] and in experiment [10] was more than 100 µM throughout.

On to `C=C1C(=O)OC2CC(C)C3C=CC(=O)C3CC12` (stereo not given), for which the TGI in experiment [1] was found to be 31.8 µM; in experiment [2], 8.21 µM; in [3], 12.4 µM; in experiment [4] it was 24.3 µM; in experiment [5], 7.4 µM; in experiment [6] it was 9.5 µM. Moreover, the TGI in experiment [7] worked out at 4.16 µM; in experiment [8] it was 5.77 µM; in experiment [9], 8.21 µM; in experiment [10] it was 12.9 µM.

Consider `COc1ccc(-c2cc(=O)c3c(OC)c(OC)c(OC)c(OC)c3o2)c(OC)c1`, for which the TGI was 70.6 µM in experiment [1]; 84.8 µM in [2]; 89.7 µM in experiment [3]; 76.1 µM in experiment [4]; more than 100 µM in experiment [5]; more than 100 µM in experiment [6]. Besides, the TGI in experiment [7] is more than 100 µM; in experiment [8] it was 59.5 µM; in [9], more than 100 µM; in experiment [10] it was more than 100 µM.

With `Cc1cc(N(CCCl)CCCl)ccc1/C=N/NC(=O)Cc1cc(=O)oc2cc(O)ccc12`, the TGI in experiment [1] was determined as 39.7 µM; in [2], 40.3 µM; in experiment [3] it was 38.5 µM; in experiment [4] it was 45.3 µM; in [5], 56.4 µM; in experiment [6], 30.5 µM. The TGI was found to be 41.9 µM in experiment [7], 56.9 µM in experiment [8], 43.2 µM in experiment [9] and 66.1 µM in [10].

For the compound `C=CC1=C(C)C2=NC1=CC1=NC(=CC3=C(C)C4=C(O)C(C(=O)OC)C(=C5NC(=C2)C(C)C5CCC(=O)OC)C4=N3)C(CC)=C1C` (stereo not given), the TGI in experiment [1], in [2], in [3], in experiment [4], in [5] and in experiment [6] was more than 100 µM in each case. The TGI in experiment [7], in [8], in [9] and in experiment [10] was more than 100 µM throughout.

On to `COc1ccc(N(/C=C/C(=O)C(F)(F)F)CC(=O)c2ccc(Cl)c(Cl)c2)cc1`, for which the GI50 in experiment [1] is 16.9 µM; in experiment [2] it was 12.2 µM; in experiment [3], 12.1 µM; in [4], 10.1 µM; in experiment [5], 11.3 µM; in experiment [6] it was 6.73 µM. In addition, the GI50 is 28.1 µM in experiment [7], 18.9 µM in experiment [8], 18.5 µM in [9] and 4.07 µM in [10]. Further, the TGI in [1] stood at 30.9 µM; in [2], 25.1 µM; in experiment [3], 25.4 µM; in experiment [4], 22.2 µM; in experiment [5] it was 30.3 µM; in experiment [6], 27.3 µM. Also, the TGI in [7] was 79.4 µM; in [8], 48.3 µM; in experiment [9] it was 37.9 µM; in experiment [10], more than 100 µM.

As to `OCC(O)C(O)C(O)/C=N/Nc1nc2ccccc2nc1-c1ccccc1` (stereo not given), the GI50 was more than 100 µM in [1]; more than 100 µM in [2]; more than 100 µM in [3]; more than 100 µM in experiment [4]; 74.1 µM in [5]; 70.3 µM in experiment [6]. In addition, the GI50 was more than 100 µM in experiment [7], 41.5 µM in experiment [8], more than 100 µM in experiment [9] and 68.9 µM in [10]. For the same compound, the TGI in experiment [1], in experiment [2], in experiment [3], in [4], in experiment [5] and in experiment [6] was more than 100 µM in each case. Further, the TGI in experiment [7], in experiment [8], in [9] and in experiment [10] was more than 100 µM in each case.

On to `NS(=O)(=O)c1ccc(NC(=O)c2cccc3cc4ccccc4nc23)cc1`, for which the TGI in experiment [1], in experiment [2], in experiment [3], in experiment [4], in experiment [5] and in [6] was more than 100 µM throughout. Moreover, the TGI was more than 100 µM in [7], more than 100 µM in experiment [8], 98.7 µM in [9] and more than 100 µM in experiment [10].

With `Cc1c(N=Cc2ccc(N(CCC#N)CCC#N)cc2)c(=O)n(-c2ccccc2)n1C`, the TGI in experiment [1] is 86.1 µM; in experiment [2] it was 69.1 µM; in experiment [3], more than 100 µM; in experiment [4], more than 100 µM; in [5], more than 100 µM; in experiment [6], more than 100 µM. For the same compound, the TGI in [7], in experiment [8], in experiment [9] and in [10] was more than 100 µM each time.
